From ChEMBL document CHEMBL3425503, “Synthesis and studies on the mGluR agonist activity of FAP4 stereoisomers” (Bioorg Med Chem Lett, 2015)
Active and inactive are the calls of the source. The rule behind the calls is not given here.

Columns and labels:
Format in all cases: functional, cell-based
[1] = molecular target: Metabotropic glutamate receptor 4 (Rattus norvegicus, UniProt P31423); test: Agonist activity at rat mGluR4 expressed in HEK293 cells assessed as induction of inositol phosphate production by HTRF assay
[2] = molecular target: Metabotropic glutamate receptor 1 (Rattus norvegicus) (UniProt P23385); test: Agonist activity at rat mGluR1 expressed in HEK293 cells assessed as induction of inositol phosphate production at 100 uM by HTRF assay
[3] = molecular target: Metabotropic glutamate receptor 5 (Rattus norvegicus) (UniProt P31424); test: Agonist activity at rat mGluR5 expressed in HEK293 cells assessed as induction of inositol phosphate production at 100 uM by HTRF assay
[4] = molecular target: Metabotropic glutamate receptor 2 (Rattus norvegicus, UniProt P31421); test: Agonist activity at rat mGluR2 expressed in HEK293 cells assessed as induction of inositol phosphate production by HTRF assay
[5] = molecular target: Metabotropic glutamate receptor 6 (Rattus norvegicus, UniProt P35349); test: Agonist activity at rat mGluR6 expressed in HEK293 cells assessed as induction of inositol phosphate production by HTRF assay
[6] = molecular target: Metabotropic glutamate receptor 7 (Rattus norvegicus, UniProt P35400); test: Agonist activity at rat mGluR7 expressed in HEK293 cells assessed as induction of inositol phosphate production by HTRF assay
[7] = molecular target: Metabotropic glutamate receptor 8 (Rattus norvegicus, UniProt P70579); test: Agonist activity at rat mGluR8 expressed in HEK293 cells assessed as induction of inositol phosphate production by HTRF assay
Metabotropic glutamate receptor 8, sequence (P70579 whole entry): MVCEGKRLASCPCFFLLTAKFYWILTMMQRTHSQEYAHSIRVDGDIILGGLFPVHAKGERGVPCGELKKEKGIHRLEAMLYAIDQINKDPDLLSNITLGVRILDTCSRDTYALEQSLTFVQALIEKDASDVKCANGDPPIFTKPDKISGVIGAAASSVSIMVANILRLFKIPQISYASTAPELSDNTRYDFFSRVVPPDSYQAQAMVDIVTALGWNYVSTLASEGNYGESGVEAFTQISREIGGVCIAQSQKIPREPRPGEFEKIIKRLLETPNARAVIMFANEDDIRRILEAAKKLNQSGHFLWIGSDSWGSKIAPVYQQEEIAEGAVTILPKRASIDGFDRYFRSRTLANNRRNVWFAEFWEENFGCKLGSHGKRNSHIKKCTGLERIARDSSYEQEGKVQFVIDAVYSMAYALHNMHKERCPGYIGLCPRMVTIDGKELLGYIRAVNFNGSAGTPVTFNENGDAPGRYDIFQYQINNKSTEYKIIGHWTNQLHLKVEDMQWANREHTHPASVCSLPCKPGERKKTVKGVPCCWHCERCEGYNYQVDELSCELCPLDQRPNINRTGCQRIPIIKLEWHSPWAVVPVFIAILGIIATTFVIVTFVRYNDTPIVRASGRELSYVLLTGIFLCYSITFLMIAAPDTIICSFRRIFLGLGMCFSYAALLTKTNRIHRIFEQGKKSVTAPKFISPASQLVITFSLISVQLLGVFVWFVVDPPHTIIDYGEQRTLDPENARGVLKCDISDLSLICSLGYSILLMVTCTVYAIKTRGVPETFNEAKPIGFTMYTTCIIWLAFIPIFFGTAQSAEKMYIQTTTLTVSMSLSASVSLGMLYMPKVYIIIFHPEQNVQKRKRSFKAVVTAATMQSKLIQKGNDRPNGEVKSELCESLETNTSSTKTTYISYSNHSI

Metabotropic glutamate receptor 7, sequence (P35400 whole entry): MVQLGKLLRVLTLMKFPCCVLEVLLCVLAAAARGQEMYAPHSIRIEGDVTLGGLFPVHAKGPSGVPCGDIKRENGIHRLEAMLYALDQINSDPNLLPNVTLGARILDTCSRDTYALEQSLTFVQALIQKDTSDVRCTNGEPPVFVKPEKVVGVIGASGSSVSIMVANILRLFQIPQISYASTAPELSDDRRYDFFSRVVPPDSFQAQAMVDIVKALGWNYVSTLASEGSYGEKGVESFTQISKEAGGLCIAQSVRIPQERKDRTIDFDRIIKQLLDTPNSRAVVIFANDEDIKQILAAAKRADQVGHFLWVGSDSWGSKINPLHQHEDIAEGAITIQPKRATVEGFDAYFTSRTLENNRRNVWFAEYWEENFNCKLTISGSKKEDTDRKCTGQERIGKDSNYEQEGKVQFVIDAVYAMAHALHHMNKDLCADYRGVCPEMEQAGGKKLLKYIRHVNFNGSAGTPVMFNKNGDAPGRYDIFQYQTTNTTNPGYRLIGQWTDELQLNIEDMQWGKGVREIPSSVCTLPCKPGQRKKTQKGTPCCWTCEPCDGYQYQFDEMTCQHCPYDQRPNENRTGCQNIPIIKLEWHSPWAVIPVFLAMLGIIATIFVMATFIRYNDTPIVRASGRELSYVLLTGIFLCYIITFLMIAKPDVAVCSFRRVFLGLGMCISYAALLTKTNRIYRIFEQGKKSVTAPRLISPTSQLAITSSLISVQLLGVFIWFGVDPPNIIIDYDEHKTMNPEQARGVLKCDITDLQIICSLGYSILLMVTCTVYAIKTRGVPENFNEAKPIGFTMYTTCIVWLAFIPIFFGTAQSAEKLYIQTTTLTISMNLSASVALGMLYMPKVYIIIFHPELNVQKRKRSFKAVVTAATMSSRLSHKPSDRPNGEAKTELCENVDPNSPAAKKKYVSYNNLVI
Metabotropic glutamate receptor 6, sequence (P35349 whole entry): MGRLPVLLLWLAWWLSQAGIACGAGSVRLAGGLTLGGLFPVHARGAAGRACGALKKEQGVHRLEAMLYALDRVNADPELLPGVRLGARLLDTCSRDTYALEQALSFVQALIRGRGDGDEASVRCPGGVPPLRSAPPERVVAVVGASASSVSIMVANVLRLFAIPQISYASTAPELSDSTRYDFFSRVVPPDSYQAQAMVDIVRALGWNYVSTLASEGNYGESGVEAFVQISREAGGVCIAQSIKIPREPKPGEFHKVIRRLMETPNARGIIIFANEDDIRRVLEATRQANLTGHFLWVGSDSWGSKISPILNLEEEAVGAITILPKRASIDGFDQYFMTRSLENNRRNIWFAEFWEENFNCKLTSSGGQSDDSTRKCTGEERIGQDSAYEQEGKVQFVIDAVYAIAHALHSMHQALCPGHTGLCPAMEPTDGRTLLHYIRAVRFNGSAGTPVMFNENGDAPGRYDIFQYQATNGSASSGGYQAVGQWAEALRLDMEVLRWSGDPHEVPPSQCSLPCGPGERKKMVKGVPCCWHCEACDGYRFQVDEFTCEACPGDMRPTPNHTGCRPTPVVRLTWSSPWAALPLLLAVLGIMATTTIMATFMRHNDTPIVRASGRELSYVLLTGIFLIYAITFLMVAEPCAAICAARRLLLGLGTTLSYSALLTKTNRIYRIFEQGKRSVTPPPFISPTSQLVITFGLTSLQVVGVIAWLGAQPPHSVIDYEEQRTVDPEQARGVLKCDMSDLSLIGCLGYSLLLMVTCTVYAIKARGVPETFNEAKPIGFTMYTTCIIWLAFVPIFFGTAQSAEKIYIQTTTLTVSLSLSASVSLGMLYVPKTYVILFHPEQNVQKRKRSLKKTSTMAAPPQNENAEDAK
Metabotropic glutamate receptor 4, sequence (P31423 whole entry): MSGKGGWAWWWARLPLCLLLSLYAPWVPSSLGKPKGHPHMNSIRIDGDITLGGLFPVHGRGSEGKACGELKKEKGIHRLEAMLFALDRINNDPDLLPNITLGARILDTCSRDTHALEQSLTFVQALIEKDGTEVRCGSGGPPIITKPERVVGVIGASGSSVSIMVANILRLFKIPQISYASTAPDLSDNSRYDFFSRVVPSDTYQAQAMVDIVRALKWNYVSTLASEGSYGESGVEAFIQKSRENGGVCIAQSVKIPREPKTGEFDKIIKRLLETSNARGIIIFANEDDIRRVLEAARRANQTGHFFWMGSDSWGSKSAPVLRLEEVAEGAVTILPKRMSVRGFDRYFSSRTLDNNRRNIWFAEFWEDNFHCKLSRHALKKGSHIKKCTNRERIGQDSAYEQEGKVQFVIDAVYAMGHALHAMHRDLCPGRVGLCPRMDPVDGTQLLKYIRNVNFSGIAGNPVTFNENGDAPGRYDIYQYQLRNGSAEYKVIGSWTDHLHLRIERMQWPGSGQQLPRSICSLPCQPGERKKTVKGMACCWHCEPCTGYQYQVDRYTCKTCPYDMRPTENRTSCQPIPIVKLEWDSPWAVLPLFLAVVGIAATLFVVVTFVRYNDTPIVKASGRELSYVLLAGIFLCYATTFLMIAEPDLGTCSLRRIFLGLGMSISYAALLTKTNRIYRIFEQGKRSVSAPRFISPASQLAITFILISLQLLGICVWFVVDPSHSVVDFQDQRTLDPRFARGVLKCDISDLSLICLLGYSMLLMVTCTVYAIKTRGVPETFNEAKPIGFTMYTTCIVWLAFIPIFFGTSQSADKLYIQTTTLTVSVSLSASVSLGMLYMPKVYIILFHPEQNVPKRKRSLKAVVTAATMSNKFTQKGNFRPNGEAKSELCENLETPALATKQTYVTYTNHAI
Metabotropic glutamate receptor 5 (Rattus norvegicus), sequence (P31424 21-1203 limits assumed): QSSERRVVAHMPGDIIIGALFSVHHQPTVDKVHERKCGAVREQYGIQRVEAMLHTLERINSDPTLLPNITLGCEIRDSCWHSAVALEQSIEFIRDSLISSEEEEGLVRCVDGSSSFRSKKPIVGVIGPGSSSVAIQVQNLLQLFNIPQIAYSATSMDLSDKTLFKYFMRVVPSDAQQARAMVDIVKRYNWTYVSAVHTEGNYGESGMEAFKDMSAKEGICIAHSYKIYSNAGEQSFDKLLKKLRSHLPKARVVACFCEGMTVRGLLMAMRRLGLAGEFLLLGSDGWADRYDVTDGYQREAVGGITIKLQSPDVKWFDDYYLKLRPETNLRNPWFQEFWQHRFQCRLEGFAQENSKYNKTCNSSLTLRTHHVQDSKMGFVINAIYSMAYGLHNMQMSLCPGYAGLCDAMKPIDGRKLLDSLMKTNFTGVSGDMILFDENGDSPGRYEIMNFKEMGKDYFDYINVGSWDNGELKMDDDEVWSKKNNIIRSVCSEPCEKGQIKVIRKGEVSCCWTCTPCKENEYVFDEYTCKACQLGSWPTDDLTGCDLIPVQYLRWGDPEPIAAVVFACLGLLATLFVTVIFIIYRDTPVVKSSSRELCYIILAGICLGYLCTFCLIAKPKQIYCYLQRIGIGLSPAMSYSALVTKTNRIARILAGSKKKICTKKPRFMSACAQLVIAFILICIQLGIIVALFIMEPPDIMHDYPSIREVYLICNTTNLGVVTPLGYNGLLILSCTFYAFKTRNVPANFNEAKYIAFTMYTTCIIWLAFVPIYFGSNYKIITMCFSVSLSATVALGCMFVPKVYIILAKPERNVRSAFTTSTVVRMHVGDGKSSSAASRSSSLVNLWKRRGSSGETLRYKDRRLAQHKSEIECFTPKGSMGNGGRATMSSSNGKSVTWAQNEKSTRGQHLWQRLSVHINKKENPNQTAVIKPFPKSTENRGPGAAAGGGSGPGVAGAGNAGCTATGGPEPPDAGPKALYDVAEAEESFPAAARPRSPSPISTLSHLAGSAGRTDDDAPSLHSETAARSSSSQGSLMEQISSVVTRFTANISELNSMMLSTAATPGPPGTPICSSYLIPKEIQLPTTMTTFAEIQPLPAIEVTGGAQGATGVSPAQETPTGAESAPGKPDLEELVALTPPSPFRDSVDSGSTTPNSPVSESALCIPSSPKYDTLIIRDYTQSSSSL

| SMILES | EC50 [1] | EC50 [5] | EC50 [6] | EC50 [7] | other results |
| --- | --- | --- | --- | --- | --- |
| NC1(C(=O)O)CC1(F)CP(=O)(O)O (single isomer, unassigned; form 2) | 0.1 µM |  |  |  |  |
| NC1(C(=O)O)CC1(F)CP(=O)(O)O (racemic; form 1) [listing 1 of 2 here] |  |  |  |  | Activity [2]: inactive; Activity [3]: inactive |
| NC1(C(=O)O)CC1(F)CP(=O)(O)O (stereo in doubt; form 2) | 135 µM |  |  |  |  |
| NC1(C(=O)O)CC1(F)CP(=O)(O)O (racemic; form 1) [listing 2 of 2 here] | 0.3 µM | 6.01 µM | > 100 µM | 1.25 µM | EC50 [4]: > 100 µM |
| NC1(C(=O)O)CC1(F)CP(=O)(O)O (racemic; form 2) | 0.1 µM |  |  |  |  |
| N[C@@H](CCC(=O)O)C(=O)O [GLUTAMIC ACID] | 12.6 µM | 82.2 µM | > 100 µM | 21.5 µM |  |
| NC1(C(=O)O)CC1(F)CP(=O)(O)O (single isomer, unassigned; form 1) | 0.12 µM |  |  |  |  |
| N[C@@]1(C(=O)O)C[C@H]1CP(=O)(O)O | 0.03 µM |  |  |  |  |
| N[C@@H](CCP(=O)(O)O)C(=O)O | 0.03 µM | 3.45 µM | 426 µM | 0.11 µM |  |
| NC1(C(=O)O)CC1(F)CP(=O)(O)O (stereo in doubt; form 1) | 11.4 µM |  |  |  |  |
